Structures are written as SMILES.

The target in this assay is T1, Human Recombinant Matriptase 2 (Homo sapiens, UniProt Q8IU80).
T1 construct: made in house
T1 sequence (Q8IU80 1-811): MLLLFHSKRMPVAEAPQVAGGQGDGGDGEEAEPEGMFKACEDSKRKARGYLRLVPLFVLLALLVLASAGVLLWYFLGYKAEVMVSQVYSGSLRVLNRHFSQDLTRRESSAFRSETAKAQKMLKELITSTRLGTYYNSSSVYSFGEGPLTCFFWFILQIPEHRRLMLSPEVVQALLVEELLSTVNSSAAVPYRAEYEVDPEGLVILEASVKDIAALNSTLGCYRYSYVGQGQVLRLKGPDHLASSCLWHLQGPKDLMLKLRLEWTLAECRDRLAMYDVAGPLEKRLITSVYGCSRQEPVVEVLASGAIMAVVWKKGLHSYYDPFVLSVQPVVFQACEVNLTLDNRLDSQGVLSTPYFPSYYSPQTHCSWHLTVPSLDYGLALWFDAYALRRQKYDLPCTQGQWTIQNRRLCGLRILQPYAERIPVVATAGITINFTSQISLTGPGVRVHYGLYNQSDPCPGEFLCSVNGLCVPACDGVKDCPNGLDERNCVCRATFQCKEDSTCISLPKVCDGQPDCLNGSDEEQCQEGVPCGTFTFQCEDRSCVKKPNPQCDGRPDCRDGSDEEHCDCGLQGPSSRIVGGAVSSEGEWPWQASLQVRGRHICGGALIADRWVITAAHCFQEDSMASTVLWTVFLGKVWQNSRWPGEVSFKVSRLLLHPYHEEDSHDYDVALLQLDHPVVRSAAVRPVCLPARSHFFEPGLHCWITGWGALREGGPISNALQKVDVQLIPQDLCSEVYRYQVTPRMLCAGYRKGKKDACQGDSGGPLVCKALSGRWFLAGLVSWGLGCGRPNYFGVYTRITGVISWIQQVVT
Briefly: Matriptase 2 inhibition, fluorescence based assay (Method I). As to conditions: Table A; Ki of Matriptase-2 given as class symbols; read-out: Mat-2 Ki. It is filed as biochemical. Put shortly:
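Fluorogenic readout (Ex 360/Em 480 nm) taken 60 min after adding 62 μM Boc-Gln-Ala-Arg-AMC, following 30-min enzyme–compound preincubation at 25 °C. Conditions: 3.5 nM in-house enzyme, pH 7.5 Tris/NaCl/gelatin buffer, 1% DMSO; percent inhibition versus concentration fitted by variable-slope sigmoidal regression.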
Take `CN1CCC(COC(=O)c2cc3ccc(CN)nc3n2Cc2cc(NS(=O)(=O)Cc3ccccc3C(F)(F)F)cc3ccccc23)CC1` [Compound 209, (1-methylpiperidin-4-yl)-methyl 6-(aminomethyl)-1-[(3-{[2-(trifluorometh-yl)phenyl]methanesul-fonamido}naphthalen-1-yl)methyl]-1H-pyrrolo-[2,3-b]pyridine-2-car-boxylate]: the Ki is at most 100 nM.
Take `CN1CCC(COC(=O)c2cc3ccc(CN)nc3n2Cc2cc(NS(=O)(=O)Cc3cnsc3)cc3ccccc23)CC1` [Compound 210, (1-methylpiperidin-4-yl)-methyl 6-(aminomethyl)-1-({3-[(1,2-thiazol-4-yl)-methanesulfonamido]-naphthalen-1-yl}methyl)-1H-pyrrolo[2,3-b]pyr-idine-2-carboxylate]: the Ki was at most 100 nM.
Under `COCCN1CCC(CS(=O)(=O)Nc2cc(Cn3c(C(=O)O)cc4ccc(CN)nc43)c3ccccc3c2)CC1` [Compound 211, 6-(aminomethyl)-1-[(3-{[1-(2-methoxyethyl)-piperidin-4-yl]methane-sulfonamido}naphthalen-1-yl)methyl]-1H-pyr-rolo[2,3-b]pyridine-2-carboxylic acid] stands at most 100 nM.
As for `Cc1ccccc1CS(=O)(=O)Nc1cc(Cn2c(C(=O)O)cc3ccc(CN)nc32)c2ccccc2c1` [Compound 212, 6-(aminomethyl)-1-({3-[(2-methylphenyl)meth-anesulfonamido]naph-thalen-1-yl}methyl)-1H-pyrrolo[2,3-b]pyridine-2-carboxylic acid], the Ki was at most 100 nM.
Next, `NCc1ccc2cc(C(N)=O)n(Cc3cc(NS(=O)(=O)CC[C@@H]4CCCN4)cc4ccccc34)c2n1` [Compound 213, 6-(aminomethyl)-1-[(3-{2-[(2S)-pyrrolidin-2-yl]ethanesulfonamido}-naphthalen-1-yl)methyl]-1H-pyrrolo[2,3-b]pyr-idine-2-carboxamide]: at most 100 nM; `NCc1ccc2cc(C(=O)O)n(Cc3cc(NS(=O)(=O)CCN4CCNCC4)cc4ccccc34)c2n1` [Compound 214, 6-(aminomethyl)-1-({3-[2-(piperazin-1-yl)-ethanesulfonamido]-naphthalen-1-yl}meth-yl)-1H-pyrrolo[2,3-b]-pyridine-2-carboxylic acid]: at most 100 nM.
Under `CNC(=O)c1cc2ccc(CN)nc2n1Cc1cc(NS(=O)(=O)CC2CCNCC2)cc2ccccc12` [Compound 215, 6-(aminomethyl)-N-methyl-1-({3-[(piperi-din-4-yl)methanesulfon-amido]naphthalen-1-yl}-methyl)-1H-pyrrolo[2,3-b]pyridine-2-carboxamide] stands 100 to 500 nM.
Next, `NCc1ccc2cc(C(=O)O)n(Cc3cc(NS(=O)(=O)CC4CCNCC4)cc4ccccc34)c2n1` [Compound 216, 6-(aminomethyl)-1-({3-[(piperidin-4-yl)methane-sulfonamido]naphthalen-1-yl}methyl)-1H-pyr-rolo[2,3-b]pyridine-2-carboxylic acid]: 100 to 500 nM; `NCc1ccc2cc(C(=O)O)n(Cc3cc(NS(=O)(=O)CC[C@H]4CCCN4)cc4ccccc34)c2n1` [Compound 217, 6-(aminomethyl)-1-[(3-{2-[(2R)-pyrrolidin-2-yl]ethanesulfonamido}-naphthalen-1-yl)methyl]-1H-pyrrolo[2,3-b]pyr-idine-2-carboxylic acid]: 100 to 500 nM.
As to `N#Cc1cccc(CS(=O)(=O)Nc2cc(Cn3c(C(=O)O)cc4ccc(CN)nc43)c3ccccc3c2)c1` [Compound 218, 6-(aminomethyl)-1-({3-[(3-cyanophenyl)meth-anesulfonamido]naph-thalen-1-yl}methyl)-1H-pyrrolo[2,3-b]pyridine-2-carboxylic acid], the inhibition constant (Ki) lay within 100 to 500 nM.
Under `CN(C)CCCCS(=O)(=O)Nc1cc(Cn2c(C(=O)O)cc3ccc(CN)nc32)c2ccccc2c1` [Compound 219, 6-(aminomethyl)-1-({3-[4-(dimethylamino)-butanesulfonamido]naph-thalen-1-yl}methyl)-1H-pyrrolo[2,3-b]pyridine-2-carboxylic acid] stands 100 to 500 nM; under `NCc1ccc2cc(C(=O)O)n(Cc3cc(NS(=O)(=O)Cc4ccoc4)cc4ccccc34)c2n1` [Compound 220, 6-(aminomethyl)-1-({3-[(furan-3-yl)methane-sulfonamido]naphthalen-1-yl}methyl)-1H-pyr-rolo[2,3-b]pyridine-2-carboxylic acid], 100 to 500 nM.
Next, `CN1CCC(COC(=O)c2cc3ccc(CN)nc3n2Cc2cc(NS(=O)(=O)Cc3cccc(C#N)c3)cc3ccccc23)CC1` [Compound 221, (1-methylpiperidin-4-yl)methyl 6-(aminometh-yl)-1-({3-[(3-cyanophen-yl)methanesulfonamido]-naphthalen-1-yl}methyl)-1H-pyrrolo[2,3-b]pyr-idine-2-carboxylate]: 100 to 500 nM.
Next, `NCc1ccc2cc(C(=O)O)n(Cc3cc(NS(=O)(=O)Cc4ccccn4)cc4ccccc34)c2n1` [Compound 222, 6-(aminomethyl)-1-({3-[(pyridin-2-yl)methane-sulfonamido]naphthalen-1-yl}methyl)-1H-pyr-rolo[2,3-b]pyridine-2-carboxylic acid]: 100 to 500 nM; `NCc1ccc2cc(C(=O)O)n(Cc3cc(NS(=O)(=O)CCC4CCNCC4)cc4ccccc34)c2n1` [Compound 223, 6-(aminomethyl)-1-({3-[2-(piperidin-4-yl)-ethanesulfonamido]-naphthalen-1-yl}meth-yl)-1H-pyrrolo[2,3-b]-pyridine-2-carboxylic acid]: 100 to 500 nM.
As to `NCc1ccc2cc(C(=O)O)n(Cc3cc(NS(=O)(=O)Cc4ccccc4C(F)(F)F)cc4ccccc34)c2n1` [Compound 225, 6-(aminomethyl)-1-[(3-{[2-(trifluoromethyl)-phenyl]methanesulfon-amido}naphthalen-1-yl)methyl]-1H-pyrrolo-[2,3-b]pyridine-2-car-boxylic acid], the Ki lay within 100 to 500 nM.
As for `NCc1ccc2cc(C(=O)O)n(Cc3cc(NS(=O)(=O)CCn4cnnn4)cc4ccccc34)c2n1` [Compound 226, 6-(aminomethyl)-1-({3-[2-(1H-1,2,3,4-tetrazol-1-yl)ethanesulfonamido]-naphthalen-1-yl}methyl)-1H-pyrrolo[2,3-b]pyr-idine-2-carboxylic acid], the Ki fell in the range of 100 to 500 nM.
Under `NCc1ccc2cc(C(=O)O)n(Cc3cc(NS(=O)(=O)Cc4ccccc4F)cc4ccccc34)c2n1` [Compound 227, 6-(aminomethyl)-1-({3-[(2-fluorophenyl)meth-anesulfonamido]naph-thalen-1-yl}methyl)-1H-pyrrolo[2,3-b]pyridine-2-carboxylic acid] stands 100 to 500 nM; under `NCc1ccc2cc(C(=O)O)n(Cc3cc(NS(=O)(=O)CCn4ccnn4)cc4ccccc34)c2n1` [Compound 228, 6-(aminomethyl)-1-({3-[2-(1H-1,2,3-triazol-1-yl)ethanesulfonamido]-naphthalen-1-yl}meth-yl)-1H-pyrrolo[2,3-b]-pyridine-2-carboxylic acid], 100 to 500 nM; under `NCc1ccc2cc(C(=O)O)n(Cc3cc(NS(=O)(=O)Cc4cccc(F)c4)cc4ccccc34)c2n1` [Compound 229, 6-(aminomethyl)-1-({3-[(3-fluorophenyl)meth-anesulfonamido]naph-thalen-1-yl}methyl)-1H-pyrrolo[2,3-b]pyridine-2-carboxylic acid], 100 to 500 nM.

A word on the Ki: it is the dissociation constant of the complex between target and ligand, obtained from inhibition or displacement.
